# Patent publication US8901314B2, “Substituted pyrazoles as N-type calcium channel blockers” (Janssen Pharmaceutica NV, priority 2012, dated 2014)
# Molecular target: α1B (Cav2.2), β3 and α2δ subunits of the N-type calcium channel (stable HEK cell line) (Rattus norvegicus, UniProt Q02294)
# Experiment: Calcium-dye indicator assay (FDSS, KCl depolarization)
# Type: cell-based
# Conditions: calcium mobilization response to 50 mM KCl; six-point concentration-response
# Method: A stable cell line (HEK parent) co-expressing the α1B (Cav2.2), β3 and α2δ subunits of the N-type calcium channel subunits was used. These cells were routinely grown as monolayers in low glucose-containing Dulbecco's Modified Eagle Medium supplemented with 10% FBS, 2 mM L-glutamine, 100 I.U./mL penicillin, 100 μg/mL streptomycin, 400 μg/mL G418 and 200 μg/mL Zeocin (split ratio=1:5). Cells were maintained in 5% CO2 at 37° C. Compounds of Formula (I) were prepared as 10 mM stocks in DMSO from neat compound, if available. Otherwise, the 5 or 10 mM DMSO stock solutions provided in-house were used.
# Calcium mobilization responses to KCl depolarization were evaluated by measuring the intensity of calcium-mediated fluorescent signal in the presence of BD Calcium Assay Dye (BD Biosciences, Franklin Lakes, N.J., U.S.A.), utilizing a Functional Drug Screening System (FDSS) by Hamamatsu Corporation (Bridgewater, N.J., U.S.A.).
# Twenty-four hours prior to assay, cells were seeded in clear-base poly-D-lysine coated 384-well plates (BD Biosciences) at a density of 5,000 cells per well in culture medium and grown overnight in 5% CO2 at 37° C. On the day of assay growth media were removed and cells were loaded with BD calcium assay dye (BD Biosciences) for 35 min at 37° C. under 5% CO2 and then for 25 min at room temperature. Utilizing the FDSS, cells were exposed to representative compounds of Formula (I) at varying concentrations and intracellular calcium was measured for 5 min prior to the addition of 50 mM KCl for an additional 3 min of measurement.
# Maximal fluorescence intensity (FI) achieved upon addition of 50 mM KCl was exported from the FDSS software and further analyzed using GraphPad Prism 4 (Graph Pad Software Inc., CA, U.S.A.). Data were normalized to the maximum average counts from quadruplicate wells for each condition in the presence of 50 mM KCl and to the minimum average counts in the presence of buffer. Theoretical curves were generated using nonlinear regression curve-fitting analysis of either sigmoidal concentration-response or sigmoidal concentration-response (variable slope), and the IC50 values with the best-fit dose curve determined by GraphPad Prism were reported.
row,Structure (SMILES),IC50 [µM]
1,"COc1ccccc1-n1nc(C2CC(C)(C)OC(C)(C)C2)cc1-c1ccccc1NC(C)=O [Compound 36, N-{2-[1-(2-Methoxyphenyl)-3-(2,2,6,6-tetramethyltetrahydro-2H-pyran-4-yl)-1H-pyrazol-5-yl]-phenyl}-acetamide]",0.143
2,"COc1ccccc1-n1nc(C2CC(C)(C)OC(C)(C)C2)cc1C1=CCCC1 [Compound 37, 5-Cyclopent-1-en-1-yl-1-(2-methoxyphenyl)-3-(2,2,6,6-tetramethyltetrahydro-2H-pyran-4-yl)-1H-pyrazole]",0.034
3,"COc1ccccc1-n1nc(C2CC(C)(C)OC(C)(C)C2)cc1-c1ncc(C)s1 [Compound 38, 2-[1-(2-Methoxyphenyl)-3-(2,2,6,6-tetramethyltetrahydro-2H-pyran-4-yl)-1H-pyrazol-5-yl]-5-methyl-1,3-thiazole]",0.11
4,"COc1ncc(-c2cc(C3CC(C)(C)OC(C)(C)C3)nn2-c2ccccc2OC)cn1 [Compound 39, 2-Methoxy-5-[1-(2-methoxyphenyl)-3-(2,2,6,6-tetramethyltetrahydro-2H-pyran-4-yl)-1H-pyrazol-5-yl]pyrimidine]",0.072
5,"COc1ccccc1-n1nc(C2CC(C)(C)OC(C)(C)C2)cc1-c1cc2ccccc2o1 [Compound 41, 5-(1-Benzofuran-2-yl)-1-(2-methoxyphenyl)-3-(2,2,6,6-tetramethyltetrahydro-2H-pyran-4-yl)-1H-pyrazole]",0.065
6,"COc1cc(OC)cc(-c2cc(C3CC(C)(C)OC(C)(C)C3)nn2-c2ccccc2OC)c1 [Compound 43, 5-(3,5-Dimethoxyphenyl)-1-(2-methoxyphenyl)-3-(2,2,6,6-tetramethyltetrahydro-2H-pyran-4-yl)-1H-pyrazole]",0.058
7,"COc1ccccc1-n1nc(C2CC(C)(C)OC(C)(C)C2)cc1-c1cccnc1 [Compound 45, 3-[1-(2-Methoxyphenyl)-3-(2,2,6,6-tetramethyltetrahydro-2H-pyran-4-yl)-1H-pyrazol-5-yl]-pyridine]",0.071
8,"CC(C)(C)Oc1ccccc1-n1nc(C2CC(C)(C)OC(C)(C)C2)cc1-c1ccc(Cl)cc1 [Compound 48, 1-(2-tert-Butoxyphenyl)-5-(4-chlorophenyl)-3-(2,2,6,6-tetramethyltetrahydro-2H-pyran-4-yl)-1H-pyrazole]",0.11
9,"COc1ccccc1-n1nc(C2CCOCC2)cc1-c1ccc(Cl)cc1 [Compound 71, 5-(4-Chlorophenyl)-1-(2-methoxyphenyl)-3-(tetrahydro-2H-pyran-4-yl)-1H-pyrazole]",0.031
10,"Clc1ccc(-c2cc(C3CCOCC3)nn2-c2ccccc2Cl)cc1 [Compound 74, 1-(2-Chlorophenyl)-5-(4-chlorophenyl)-3-(tetrahydro-2H-pyran-4-yl)-1H-pyrazole]",0.053
11,"CC1(C)CC(c2cc(-c3ccc(Cl)cc3)n(-c3ccccc3N3CCCC3)n2)CC(C)(C)O1 [Compound 76, 5-(4-Chlorophenyl)-1-(2-pyrrolidin-1-ylphenyl)-3-(2,2,6,6-tetramethyltetrahydro-2H-pyran-4-yl)-1H-pyrazole]",0.1
12,"CCc1ccccc1-n1nc(C2CCOCC2)cc1-c1ccc(Cl)cc1 [Compound 77, 5-(4-Chlorophenyl)-1-(2-ethylphenyl)-3-(tetrahydro-2H-pyran-4-yl)-1H-pyrazole]",0.15
13,"FC(F)(F)Oc1ccccc1-n1nc(C2CCOCC2)cc1-c1ccc(Cl)cc1 [Compound 79, 5-(4-Chlorophenyl)-3-(tetrahydro-2H-pyran-4-yl)-1-[2-(trifluoromethoxy)phenyl]-1H-pyrazole]",0.18
14,"Clc1ccc(-c2cc(C3CCOCC3)nn2-c2c(Cl)cccc2Cl)cc1 [Compound 80, 5-(4-Chlorophenyl)-1-(2,6-dichlorophenyl)-3-(tetrahydro-2H-pyran-4-yl)-1H-pyrazole]",0.2
15,"COc1ccccc1-n1nc(C2=CC(C)(C)OC2(C)C)cc1-c1ccc(Cl)cc1 [Compound 97, 5-(4-Chlorophenyl)-1-(2-methoxyphenyl)-3-(2,2,5,5-tetramethyl-2,5-dihydrofuran-3-yl)-1H-pyrazole]",0.013

# Now from value to compound:
row,IC50 [µM],Structure (SMILES)
1,0.14,"COc1ccccc1-n1nc(C2CC(C)(C)OC(C)(C)C2)cc1-c1ccncc1 [Compound 32, 4-[1-(2-Methoxyphenyl)-3-(2,2,6,6-tetramethyltetrahydro-2H-pyran-4-yl)-1H-pyrazol-5-yl]pyridine]"
2,0.082,"COc1ccccc1-n1nc(C2CC(C)(C)OC(C)(C)C2)cc1-c1ccnc(C)c1 [Compound 33, 4-[1-(2-Methoxyphenyl)-3-(2,2,6,6-tetramethyltetrahydro-2H-pyran-4-yl)-1H-pyrazol-5-yl]-2-methylpyridine]"
3,0.12,"COc1cncc(-c2cc(C3CC(C)(C)OC(C)(C)C3)nn2-c2ccccc2OC)c1 [Compound 34, 3-Methoxy-5-[1-(2-methoxyphenyl)-3-(2,2,6,6-tetramethyltetrahydro-2H-pyran-4-yl)-1H-pyrazol-5-yl]-pyridine]"
4,0.27,"CCN(CC)C(=O)c1ccc(-c2cc(C3CC(C)(C)OC(C)(C)C3)nn2-c2ccccc2OC)cc1 [Compound 40, N,N-Diethyl-4-[1-(2-methoxyphenyl)-3-(2,2,6,6-tetramethyltetrahydro-2H-pyran-4-yl)-1H-pyrazol-5-yl]-benzamide]"
5,0.055,"COc1ccccc1-n1nc(C2CC(C)(C)OC(C)(C)C2)cc1-c1ccc2[nH]ccc2c1 [Compound 42, 5-[1-(2-Methoxyphenyl)-3-(2,2,6,6-tetramethyltetrahydro-2H-pyran-4-yl)-1H-pyrazol-5-yl]-1H-indole]"
6,0.4,"COc1ccccc1-n1nc(C2CC(C)(C)OC(C)(C)C2)cc1-c1ccc(OCCn2ccnc2)cc1 [Compound 81, 5-{4-[2-(1H-Imidazol-1-yl)ethoxy]phenyl}-1-(2-methoxyphenyl)-3-(2,2,6,6-tetramethyltetrahydro-2H-pyran-4-yl)-1H-pyrazole]"
7,0.77,"COc1ccccc1-n1nc(C2CC(C)(C)OC(C)(C)C2)cc1-c1ccc(OCCN(C)C)cc1 [Compound 82, 2-{4-[1-(2-Methoxyphenyl)-3-(2,2,6,6-tetramethyltetrahydro-2H-pyran-4-yl)-1H-pyrazol-5-yl]phenoxy}-N,N-dimethylethanamine]"
